# Patent publication US6127339A, “Peptide for binding thereto a low density lipoprotein” (Asahi Kasei Kogyo Kabushiki Kaisha, priority 1995, dated 2000)
# No end group written: not given here.
# How the values were obtained:
# LDL [1] = assay: BIAcore affinity of immobilized peptide to LDL in plasma; assay type: binding; conditions: plasma containing 1 mg/ml LDL versus LDL-free plasma; based on the immobilized amount of RRWFW-CONH2 as standard
# Source text: (§1) Further, the binding ability (affinity) of the adsorbent for an LDL can also be determined by using BIAcore (manufactured and sold by Pharmacia Biosensor AB, Sweden), in accordance with the instructions given in a manual attached to BIAcore. Specifically, the binding ability of the adsorbent for an LDL can also be determined by a method in which the peptide is immobilized on a sensor chip of the BIAcore, and a solution containing LDL, such as plasma, is flowed over the sensor chip.
# Twenty-seven different peptides and four different comparative peptides (which are all shown in Table 12, wherein for Example 12, Sample Nos. 12-15 are SEQ ID NOS:12-15, respectively) were prepared in substantially the same manner as in Example 7. Each of the obtained peptides was individually dissolved in a 10 mM acetate buffer (pH: 5.5) to thereby obtain peptide solutions each having a peptide concentration of […]. […]
# The affinity of the peptide to the LDL in plasma was measured using the above-mentioned BIAcore (provided with the sensor chip having the peptide immobilized thereon) as follows. […]
# LDL [2] = assay: BIAcore affinity of immobilized peptide to LDL in HBS buffer; assay type: binding; conditions: 6-minute injection, based on the immobilized amount of RRWFW-CONH2 as standard
# Source text: as §1
# Twenty-six different peptides and four different comparative peptides (which are all shown in Table 11; wherein for Example 11, Sample Nos. 1, 4 and 5-26 are SEQ ID NOS:35, 89 and 36-57, respectively, and wherein for Comparative Example 8, Sample Nos. 1, 2, 3 and 4 are SEQ ID NOS:86, 87, 90 and 88, respectively) were prepared in substantially the same manner as in Example 7. […]
# The affinity of the peptide to the LDL contained in HBS buffer was measured using the above-mentioned BIAcore (provided with the sensor chip having the peptide immobilized thereon) as follows. […] However, since the amounts of the peptides immobilized on the sensor chip vary depending on the types of the peptides, the amount of a peptide of RRWFW-CONH2 immobilized on the sensor chip was taken as a standard amount and the affinities of various tested peptides were determined, based on the above standard amount.
Substance,Affinity to LDL (RU) (LDL [1]),Affinity to LDL (RU) (LDL [2])
DPSVY-CONH2 (DPSVY-NH2),250 RU,310 RU
EMEEV-CONH2 (EMEEV-NH2),270 RU,730 RU
